Results: patent publication US20210293825A1, “METHODS FOR PRECISION THERAPEUTIC TARGETING OF HUMAN CANCER CELL MOTILITY AND KITS THEREOF” (UNITED STATES GOVERNMENT AS REPRESENTED BY THE DEPARTMENT …, priority 2018, published 2021)

Legend:
[1] = system: human prostate cells (PC3, PC3-M, 1532NPTX, 1542NPTX, 1532CPTX, 1542CPTX); assay: Boyden chamber cell invasion assay, human prostate cells; type: cell-based; conditions: 10 μM, 3 days; normal, primary and metastatic PCa cells
From the text: (§1) FIG. 1a is a schematic flow of probe synthesis and development strategy. […] Values are mean±SEM of a single experiment in replicates of N=4, with similar findings in multiple separate experiments (also N=4). […] Values are mean±SEM of a single experiment in replicates of N=24, with similar findings in a separate experiment (also N=24). *Denotes Student's t test P value <0.05, compared to controls. […] Values are mean±SEM from N>2 separate experiments, each in replicates of N=3. […] Values are the mean±SD number of total, CFU-GM, CFU-GEMM or BFU-E colonies at 14 days after treatment with KBU2046, from a single experiment in replicates of N=2. […] Values are the mean±SD of a single experiment, with similar results seen in a separate experiment, both in replicates of N=2.
Cell Invasion Assays. Boyden chamber cell invasion assays were performed as previously described^9, using either denatured collagen (BD Biosciences) or type IV human collagen (BD Biosciences), with the experiments repeated, each in N=4 replicates. In some experiments, as indicated, cells were transfected with an expression plasmid, using Lipofectamine 2000™ (Invitrogen), or with siRNA, using DharmaFect Duo (Thermo Scientific) and co-transfected with β-Galactosidase (Plasmid pCMV⋅SPORT-βgal; Life Technology).

[2] = system: estrogen-responsive genes in MCF-7 cells; assay: Induction of estrogen-responsive genes (qRT/PCR); type: cell-based, human
From the text: as §1
Quantitative Reverse Transcriptase Polymerase Chain Reaction. RNA was isolated and qRT/PCR was performed as described (Ding, Y. et al., J Biomol Tech 18, 321-30 (2007)), analyzed by the 2^−ΔΔCt method (Livak, K. J. et al., Methods 25, 402-8 (2001)), using primer/probes sets (ABI), HSP90α (Hs00743767_sH), HSP90β (Hs00427665_g1), trefoil factor 1 (TFF1; Hs00907239 ml), cathepsin D (CTSD; Hs00157205_m1), progesterone receptor (PGR; Hs01556702 ml) and GAPDH (Hs99999905_m1). Assays were repeated, each in replicates of N=2.

[3] = system: phosphorylated Ser226 on HSP90β; assay: PhosphoScan LC-MS/MS proteomic analysis in PC3 cells; type: cell-based, human; conditions: 10 μM 3 days, then TGFβ
Protocol: The 83 kDa protein was identified by pretreating PC3 cells with KBU2046 or vehicle control, treating with TGFβ and performing LC-MS/MS analysis on proteins pulled down by the KinomeView® antibody used in FIG. 4a. Resultant data were analyzed with the SEQUEST/Sorcerer data analysis suite, and proteins further selected based upon predetermined parameters (FIG. 19).
Phospho-proteomic Analysis. The Kinoview™ and PhosphoScan™ assays were performed by Cell Signaling Technology Inc.
Proteins bound in this manner were analyzed in replicates of N=2 using PhosphoScan™ technology. This identified 483 phosphopeptide assignments from 306 parent proteins, with a mean false discovery rate of 0.30% (estimated via Sorcerer search of composite human database of forward and reverse protein entries). Proteins were considered if the average values for treatment and control were each 3 times that of background. Further, it was required that each of the N=2 replicate values (used to calculate the average) to be >/=2.5 fold above background. Interest was focused on which protein decreased with KBU2046, and it was required that the decrease be >/=2.5 fold, compared to control. According to these parameters, there were 19 phospho-proteins whose expression decreased in cells treated with KBU2046, compared to control. These are depicted herein. […]

[4] = Histologic examination of tissue / systemic off-target effects; type: in vivo, Balb/c athymic mice
Protocol: Histologic examination of tissue. Organs of athymic male mice stained with H&E, Trichrome or Giemsa were microscopically examined by a mouse pathologist in a blinded fashion, and toxicity scored using an established semi-quantitative histological scoring system (Knodell, R. G. et al., Hepatology 1, 431-5 (1981)) (FIG. 14). The following clinical chemistry parameters were measured in blood of CD1 male and female mice by Charles River Research Animal Diagnostic Services: cholesterol, triglycerides, alanine aminotransferase (ALT), aspartate aminotransferase (AST), total bilirubin, glucose, phosphorus, total protein, calcium, blood urea nitrogen (BUN), creatinine, albumin, Na, K, Cl, white blood cells (with differential), red blood cells, hemoglobin, and platelets.
After 35 days of treatment, the following organs were harvested at necropsy, and stained with H&E (alternative staining methods as indicated): heart, lungs, esophagus, stomach, colon, small intestine, liver (Trichrome staining), kidneys (Trichrome staining), adrenals, bladder, prostate, spleen, pancreas, brain, testes, and bone marrow and peripheral blood (Giemsa staining). Organs were examined for damage using a semi-quantitative histological scoring system, as described (Knodell, R. G. et al., Hepatology 1, 431-5 (1981)). […] Note that mice were immunocompromised, and that changes in the liver reflected episodic and minor foci of necrosis, consistent with a prior resolved infection; clinically, mice were all healthy. The graph above depicts the scoring of liver lesions, with each data point representing a single mouse.

**Q.** Which “inhibition of cell invasion” value [1] does the source give for O=C1c2ccccc2OCC1c1ccc(F)cc1 (racemic) [KBU2046, (±)-3(4-fluorophenyl)chroman-4-one] here?
**A.** inhibits cell invasion with efficacy equal-to-or-greater-than that of genistein

**Q.** What about the “activation of estrogen-responsive genes” value [2] of the same compound?
**A.** did not activate estrogen-responsive genes

**Q.** And the “decrease of abundance of phosphorylated Ser226 on HSP90β” value [3]?
**A.** 6.6 fold

**Q.** What about the “changes in the liver” value ([4]; 35 days of treatment in chow) of the same compound?
**A.** not increased by KBU2046 treatment

**Q.** What about the “organ damage (histological scoring)” value ([4]; 35 days of treatment in chow) of the same compound?
**A.** No organ damage was observed, except in the livers of both control and treatment mice

**Q.** What about the “off-target effects (tumor growth, behavior, weight, histology, serum chemistry)” value ([4]; mouse, in vivo) of the same compound?
**A.** failed to identify KBU2046-associated off-target effects
